Experiment: Bidirectional Caco-2 permeability assay
Assay type: in vitro ADME
Details: human, Caco-2
Procedure: The bidirectional permeability of compounds across the Caco-2 cell monolayer was assessed. The Caco-2 model is a widely used in vitro model for small intestinal absorption and potential for efflux. Cell culture. Caco-2 cells were grown in DMEM supplemented with 10% fetal bovine serum (FBS), 1% Penicillin-Streptomycin and 1% MEMNEAA. The cells were incubated at 37° C., 5% CO2/95% air and saturated humidity. After reaching 80-90% confluency, the cells were gently detached with trypsin. Cells at passage 39 were seeded on the 24-well BD insert system at the density of 8×10^4 cells/cm^2 and cultured for 19 days with medium changed every 2-3 days. Measure the transepithelial electrical resistance (TEER) value of each well. The wells can be used only when their TEER values are greater than 600 Ohms/cm^2.
Transport assay. After removing the cell culture medium from the 24-well insert plate, the cells were rinsed with warm transport buffer. Appropriate dosing and receiving solutions were applied to the donor and receiver chambers to initiate the transport assay in apical to basolateral (A to B) or basolateral to apical (B to A) directions (500 and 1300 μL for apical and basolateral wells, respectively). Duplicate wells in each direction were used for the test compound and control compound. The plate was incubated in CO2 incubator at 37° C., with 5% CO2/95% air and saturated humidity without shaking. The sample after 10-minute incubation was used as the To sample, and the sample after 90-minute incubation was used as the T90 sample. To and T90 samples were collected from the donor and receiver side of each well at the designed timepoint, mixed with the transport buffer and acetonitrile/MeOH (1:1, v/v) and the internal standard for LC/MS/MS analysis. All samples were vortexed and centrifuged at 4000 rpm at 4° C. for 15 minutes, diluted with pure water and stored at 4° C. before bioanalysis by LC/MS/MS.
Sample analysis. The concentrations of test compounds and control compounds in Caco-2 cells were quantitatively determined by LC/MS/MS method after protein precipitation.
Calculations. The apparent permeability (Papp, cm/s), efflux ratio (ER) and recovery parameters were calculated for Caco-2 drug transport assay using the following equations: […]
where VR is the solution volume in the receiver chamber (0.4 mL on the apical side, 1.2 mL on the basolateral side); Area is the surface area for the insert membrane, i.e., 0.3 cm^2 for the area of the monolayer; Time is incubation time, expressed in seconds, i. e., 5400 s (90 min) for the current experiment; Co is the initial concentration of test compound or peak area ratio of control compounds in the donor chamber (M); VD is the volume in the donor chambers (0.4 mL on the apical side, 1.2 mL on the basolateral side); CD and CR are the final concentrations of test compounds or peak area ratio of control compounds in donor and receiver chambers, respectively.
Compounds with Papp<1.0 are classified as low permeability, Papp between 1-10 are classified as medium permeability, and Papp>10 are classified as high permeability. An efflux ratio (ER)>2 indicates the compounds are potential substrates for intestinal cell efflux transporters.

| SMILES | Papp A→B at 90 min [×10⁻⁶ cm/s] | Papp B→A at 90 min [×10⁻⁶ cm/s] | efflux ratio at 90 min |
| --- | --- | --- | --- |
| CC(C)(C)[C@H](N)C(=O)OC[C@H]1O[C@@](C#N)(c2ccc3c(N)ncnn23)[C@H](O)[C@@H]1OC(=O)CC1CCCCC1 [Compound 32, ((2R,3S,4R,5R)-5-(4-aminopyrrolo[2,1-f][1,2,4]triazin-7-yl)-5-cyano-3-(2-cyclohexylacetoxy)-4-hydroxytetrahydrofuran-2-yl)methyl (S)-2-amino-3,3-dimethylbutanoate] | 15.4 | 20.7 | 1.34 |
| CC(=O)Nc1ncnn2c([C@]3(C#N)O[C@H](COC(=O)[C@@H](N)C(C)(C)C)[C@@H](OC(=O)CC4CCCCC4)[C@H]3O)ccc12 [Compound 33, ((2R,3S,4R,5R)-5-(4-acetamidopyrrolo[2,1-f][1,2,4]triazin-7-yl)-5-cyano-3-(2-cyclohexylacetoxy)-4-hydroxytetrahydrofuran-2-yl)methyl (S)-2-amino-3,3-dimethylbutanoate] | 24.4 |  |  |
| CC(=O)OCOC(=O)Nc1ncnn2c([C@]3(C#N)O[C@H](COC(=O)[C@@H](N)C(C)(C)C)[C@@H](OC(=O)CC4CCCCC4)[C@H]3O)ccc12 [Compound 36, ((2R,3S,4R,5R)-5-(4-(((acetoxymethoxy)carbonyl)amino)pyrrolo[2,1-f][1,2,4]triazin-7-yl)-5-cyano-3-(2-cyclohexylacetoxy)-4-hydroxytetrahydrofuran-2-yl)methyl (S)-2-amino-3,3-dimethylbutanoate] | 0.93 | 1.15 | 1.24 |
| CC(C)(C)[C@H](N)C(=O)OC[C@H]1O[C@@](C#N)(c2ccc3c(NC(=O)CC4CCCCC4)ncnn23)[C@H](O)[C@@H]1O [Compound 39, ((2R,3S,4R,5R)-5-cyano-5-(4-(2-cyclohexylacetamido)pyrrolo[2,1-f][1,2,4]triazin-7-yl)-3,4-dihydroxytetrahydrofuran-2-yl)methyl (S)-2-amino-3,3-dimethylbutanoate] | 0.72 | 16.9 | 23.4 |
| CCC(=O)O[C@H]1[C@@H](O)[C@](C#N)(c2ccc3c(NC(=O)OCOC(=O)C(C)(C)C)ncnn23)O[C@@H]1COC(=O)[C@@H](N)C(C)(C)C [Compound 40, ((2R,3S,4R,5R)-5-cyano-4-hydroxy-5-(4-((((pivaloyloxy)methoxy)carbonyl)amino)pyrrolo[2,1-f][1,2,4]triazin-7-yl)-3-(propionyloxy)tetrahydrofuran-2-yl)methyl (S)-2-amino-3,3-dimethylbutanoate] | 0.13 | 4.5 | 34.4 |
| CCCCCCOC(=O)Nc1ncnn2c([C@]3(C#N)O[C@H](COC(=O)[C@@H](N)C(C)(C)C)[C@@H](O)[C@H]3O)ccc12 [Compound 41, ((2R,3S,4R,5R)-5-cyano-5-(4-(((hexyloxy)carbonyl)amino)pyrrolo[2,1-f][1,2,4]triazin-7-yl)-3,4-dihydroxytetrahydrofuran-2-yl)methyl (S)-2-amino-3,3-dimethylbutanoate] | 1.41 | 14.6 | 10.4 |
| CCCCCCOC(=O)Nc1ncnn2c([C@]3(C#N)O[C@H](COC(=O)[C@@H](N)C(C)(C)C)[C@@H](OC(=O)CC)[C@H]3O)ccc12 [Compound 42, ((2R,3S,4R,5R)-5-cyano-5-(4-(((hexyloxy)carbonyl)amino)pyrrolo[2,1-f][1,2,4]triazin-7-yl)-4-hydroxy-3-(propionyloxy)tetrahydrofuran-2-yl)methyl (S)-2-amino-3,3-dimethylbutanoate] | 4.24 | 3.97 | 0.94 |
| CCC(=O)O[C@H]1[C@@H](O)[C@](C#N)(c2ccc3c(NC(=O)OCOC(C)=O)ncnn23)O[C@@H]1COC(=O)[C@@H](N)C(C)(C)C [Compound 43, ((2R,3S,4R,5R)-5-(4-(((acetoxymethoxy)carbonyl)amino)pyrrolo[2,1-f][1,2,4]triazin-7-yl)-5-cyano-4-hydroxy-3-(propionyloxy)tetrahydrofuran-2-yl)methyl (S)-2-amino-3,3-dimethylbutanoate] | 1.49 | 1.02 | 0.69 |
| CC(=O)OCOC(=O)Nc1ncnn2c([C@]3(C#N)O[C@H](COC(=O)CC4CCCCC4)[C@@H](OC(=O)[C@@H](N)C(C)(C)C)[C@H]3O)ccc12 [Compound 46, (2R,3S,4R,5R)-5-(4-(((acetoxymethoxy)carbonyl)amino)pyrrolo[2,1-f][1,2,4]triazin-7-yl)-5-cyano-2-((2-cyclohexylacetoxy)methyl)-4-hydroxytetrahydrofuran-3-yl (S)-2-amino-3,3-dimethylbutanoate] | 1.45 | 0.79 | 0.54 |
| CCCCC(=O)Nc1ncnn2c([C@]3(C#N)O[C@H](COC(=O)CC4CCC4)[C@@H](OC(=O)[C@@H](N)C(C)(C)C)[C@H]3O)ccc12 [Compound 47, (2R,3S,4R,5R)-5-cyano-2-((2-cyclobutylacetoxy)methyl)-4-hydroxy-5-(4-pentanamidopyrrolo[2,1-f][1,2,4]triazin-7-yl)tetrahydrofuran-3-yl (S)-2-amino-3,3-dimethylbutanoate] | 4.57 | 12.2 | 2.68 |
| CCCCCC(=O)Nc1ncnn2c([C@]3(C#N)O[C@H](COC(=O)CC4CCC4)[C@@H](OC(=O)[C@@H](N)C(C)(C)C)[C@H]3O)ccc12 [Compound 48, (2R,3S,4R,5R)-5-cyano-2-((2-cyclobutylacetoxy)methyl)-5-(4-hexanamidopyrrolo[2,1-f][1,2,4]triazin-7-yl)-4-hydroxytetrahydrofuran-3-yl (S)-2-amino-3,3-dimethylbutanoate] | 2.02 | 4.72 | 2.34 |
| CCOC(C)(C)C(=O)Nc1ncnn2c([C@]3(C#N)O[C@H](COC(=O)CC4CCC4)[C@@H](OC(=O)[C@@H](N)C(C)(C)C)[C@H]3O)ccc12 [Compound 49, (2R,3S,4R,5R)-5-cyano-2-((2-cyclobutylacetoxy)methyl)-5-(4-(2-ethoxy-2-methylpropanamido)pyrrolo[2,1-f][1,2,4]triazin-7-yl)-4-hydroxytetrahydrofuran-3-yl (S)-2-amino-3,3-dimethylbutanoate] | 6.24 | 5.67 | 0.91 |
| CCC(CC)C(=O)Nc1ncnn2c([C@]3(C#N)O[C@H](COC(=O)CC4CCC4)[C@@H](OC(=O)[C@@H](N)C(C)(C)C)[C@H]3O)ccc12 [Compound 50, (2R,3S,4R,5R)-5-cyano-2-((2-cyclobutylacetoxy)methyl)-5-(4-(2-ethylbutanamido)pyrrolo[2,1-f][1,2,4]triazin-7-yl)-4-hydroxytetrahydrofuran-3-yl (S)-2-amino-3,3-dimethylbutanoate] | 8.66 | 8.25 | 0.95 |
| CCCCC(=O)Nc1ncnn2c([C@]3(C#N)O[C@H](COC(=O)CC4CCCC4)[C@@H](OC(=O)[C@@H](N)C(C)(C)C)[C@H]3O)ccc12 [Compound 54, (2R,3S,4R,5R)-5-cyano-2-((2-cyclopentylacetoxy)methyl)-4-hydroxy-5-(4-pentanamidopyrrolo[2,1-f][1,2,4]triazin-7-yl)tetrahydrofuran-3-yl (S)-2-amino-3,3-dimethylbutanoate] | 3.41 | 5.47 | 1.6 |

Same assay, conditions: human; Caco-2 monolayer, apical to basolateral, 90-minute incubation; read-out: Papp, A-B

| SMILES | Papp A→B at 90 min [×10⁻⁶ cm/s] |
| --- | --- |
| CC(=O)OCOC(=O)Nc1ncnn2c([C@]3(C#N)O[C@H](COC(=O)Cc4ccccc4)[C@@H](OC(=O)[C@@H](N)C(C)(C)C)[C@H]3O)ccc12 [Compound 30, (2R,3S,4R,5R)-5-(4-(((acetoxymethoxy)carbonyl)amino)pyrrolo[2,1-f][1,2,4]triazin-7-yl)-5-cyano-4-hydroxy-2-((2-phenylacetoxy)methyl)tetrahydrofuran-3-yl (S)-2-amino-3,3-dimethylbutanoate] | 0.09 |

Same assay, conditions: human; Caco-2 monolayer, basolateral to apical, 90-minute incubation; read-out: Papp, B-A

| SMILES | Papp B→A at 90 min [×10⁻⁶ cm/s] |
| --- | --- |
| CC(=O)OCOC(=O)Nc1ncnn2c([C@]3(C#N)O[C@H](COC(=O)Cc4ccccc4)[C@@H](OC(=O)[C@@H](N)C(C)(C)C)[C@H]3O)ccc12 [Compound 30, (2R,3S,4R,5R)-5-(4-(((acetoxymethoxy)carbonyl)amino)pyrrolo[2,1-f][1,2,4]triazin-7-yl)-5-cyano-4-hydroxy-2-((2-phenylacetoxy)methyl)tetrahydrofuran-3-yl (S)-2-amino-3,3-dimethylbutanoate] | 3.11 |

Same assay, conditions: human; Caco-2 monolayer; ER>2 indicates potential efflux substrate; read-out: ER (efflux ratio)

| SMILES | efflux ratio at 90 min |
| --- | --- |
| CC(=O)OCOC(=O)Nc1ncnn2c([C@]3(C#N)O[C@H](COC(=O)Cc4ccccc4)[C@@H](OC(=O)[C@@H](N)C(C)(C)C)[C@H]3O)ccc12 [Compound 30, (2R,3S,4R,5R)-5-(4-(((acetoxymethoxy)carbonyl)amino)pyrrolo[2,1-f][1,2,4]triazin-7-yl)-5-cyano-4-hydroxy-2-((2-phenylacetoxy)methyl)tetrahydrofuran-3-yl (S)-2-amino-3,3-dimethylbutanoate] | 34.6 |

From patent US20250228882A1, “ORALLY-BIOAVAILABLE NUCLEOSIDE ANALOGS” (Venatorx Pharmaceuticals, Inc., priority 2022, published 2025)
